Results published in patent publication US8686046B2, “Compositions and methods for inhibiting sphingosine kinase” (University of Virginia Patent Foundation, priority 2008, dated 2014).

How the values were obtained:
[1] = tested on: SMCs; test: PDGF-BB-induced SMC proliferation by BrdU incorporation; assay type: cell-based; conditions: FIG. 21A
Procedure: Cell proliferation was measured by BrdU incorporation.

[2] = tested on: SphK; test: SphK inhibition
[3] = biological target: T1, Sphk1 (Rattus norvegicus, UniProt Q91V26); test: Sphk1/Sphk2 activity in PDGF-BB-stimulated smooth muscle cells (P32 ATP kinase assay); assay type: cell-based; conditions: cultured rat aortic smooth muscle cells stimulated with PDGF-BB; FIG. 19B
T1 construct: endogenous in cells; host or cells: cultured rat aortic smooth muscle cells
Procedure: (§1) Smooth muscle cells (SMCs) are treated with platelet-derived growth factor BB (PDGF-BB), a potent modulator of SMC.
(§2) FIG. 19 illustrates the PDGF-BB increase Sphk1 mRNA, Spkh1 (not Sphk2) activity and S1P production. […] Cultured rat aortic smooth muscle cells were stimulated with PDGF-BB. 19A.) Real-time PCR analysis of Sphk1 mRNA at various time points compared to vehicle control. 19B.) Analysis of Sphk1 and Sphk2 activity (P^32ATP kinase assay). 19C.) S1P concentration in the media 12 hours after stimulating SMCs with PDGF-BB.

[4] = tested on: S1P production; test: S1P production by smooth muscle cells (LC/MS); assay type: cell-based, rat
Procedure: as §1, §2

[5] = tested on: SMCs; test: Cell cytotoxicity by Promega caspase activity assay; assay type: cell-based; conditions: after 24 hr treatment, FIG. 21B
[6] = tested on: SMCs; test: Images of SMCs treated with and without compound; assay type: cell-based; conditions: FIG. 21C

T1 sequence (Q91V26 whole entry): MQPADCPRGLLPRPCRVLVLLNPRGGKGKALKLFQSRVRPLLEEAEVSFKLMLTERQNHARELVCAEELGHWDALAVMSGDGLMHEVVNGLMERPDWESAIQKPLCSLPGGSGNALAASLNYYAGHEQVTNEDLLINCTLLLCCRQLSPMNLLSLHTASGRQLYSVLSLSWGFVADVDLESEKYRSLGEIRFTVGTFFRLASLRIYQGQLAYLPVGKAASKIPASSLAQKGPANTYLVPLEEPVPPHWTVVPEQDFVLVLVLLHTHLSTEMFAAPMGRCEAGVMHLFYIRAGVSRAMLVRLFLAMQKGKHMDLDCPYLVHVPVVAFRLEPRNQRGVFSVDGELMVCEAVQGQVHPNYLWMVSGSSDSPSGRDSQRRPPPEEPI

## CCCCCCCCc1ccc(C(=O)NC(C)C(N)=O)cc1 (stereo not drawn) [VPC94193]
[1]
  PDGF-BB-induced SMC proliferation: prevented PDGF-BB-induced SMC proliferation
[2]
  SphK inhibition (description): inactive form

## CCCCCCCCc1ccc(C(=O)N[C@@H](C)C(=N)N)cc1 [VPC94075]
[3]
  PDGF-BB-induced Sphk1 activity: prevents PDFD-BB-induced Sphk1 activity
[4]; 10 uM, S1P in media 12 hours after stimulating SMCs with PDGF-BB, FIG. 19C
  PDGF-BB-induced S1P production: blocks PDGF-BB-induced S1P production
[4]; concentration not given
  endogenous and PDGF-BB-induced S1P production: suppresses both endogenous and PDGF-BB-induced S1P production
[5]
  cell death: does not induce cell death
[6]
  SMC proliferation as indicated by differences in confluence: prevention of SMC proliferation
  cell morphology: healthy cell morphology
[2]
  SphK inhibition (description): non-selective SphK inhibitor
